In paper PMC9879182, “New benzothiazole hybrids as potential VEGFR-2 inhibitors: design, synthesis, anticancer evaluation, and in silico study” (Journal of Enzyme Inhibition and Medicinal Chemistry, 2023):
Like-named read-outs stand apart in the source and are kept apart here.

What was measured:
[1] = tested on: WI-38 normal fibroblast cells; experiment: MTT cytotoxicity against normal cells; type: cell-based; conditions: Homo sapiens, mean ± SD, triplicate
Description: (§1) The in vitro anticancer activity of the new benzothiazole hybrids was evaluated by performing MTT assay as in the literature[51]^,[55]^,[56].
All tested compounds were studied for their cytotoxic activity on the WI-38 normal fibroblast WI-38 cells to assess their therapeutic safety.

[2] = tested on: HEPG-2 (hepatocellular carcinoma); experiment: MTT cytotoxicity assay, HepG-2; type: cell-based; conditions: Homo sapiens, HepG2, mean ± SD, triplicate
Description: as §1

[3] = tested on: HCT-116, HEPG-2, and MCF-7; experiment: MTT cytotoxicity assay, range over the three cancer cell lines; type: cell-based, human; conditions: range over HCT-116, HEPG-2 and MCF-7, read-out: IC50 range towards the three cell lines
Description: as §1

MCF-7 cells [4] = experiment: Annexin V-FITC/PI apoptosis assay; type: cell-based, human; conditions: MCF-7, 24 h; untreated control 0.59%
Description: The extent of apoptosis was evaluated on MCF-7 cells and Annexin V-FITC/PI apoptosis detection kit following the reported method[51]^,[59].
The development of apoptosis inducers is highly attractive therapeutic strategy for the identification of powerful anticancer drugs[67]^,[68].

VEGFR-2 [5] = molecular target: T1, VEGFR-2 (Homo sapiens, UniProt P35968); experiment: In vitro VEGFR-2 kinase inhibitory assay; type: biochemical; conditions: for inhibition at 1 µM: VEGFR-2, compound at 1 μM; for inhibition at 10 µM: VEGFR-2, compound at 10 μM; for % Inhibition 10 nm: VEGFR-2, compound at 10 nm; for % Inhibition 100 nm: VEGFR-2, compound at 100 nm; for IC50: four concentrations 10 nM–10 μM
T1 construct: VEGFR-2 enzyme assay was performed as reported[57]

[6] = tested on: HCT-116 (colorectal carcinoma); experiment: MTT cytotoxicity assay, HCT-116; type: cell-based; conditions: Homo sapiens, mean ± SD, triplicate
Description: as §1

MCF-7 cells [7] = experiment: Flow cytometry cell cycle analysis (PI staining); type: cell-based, human; conditions: for Cell cycle distribution (%) G2-M / Cell cycle distribution (%) S / Cell cycle distribution (%) G0-G1: MCF-7, IC50 concentration, 24 h; for Cell cycle distribution (%) G2-M: control (DMSO) 10.19; for Cell cycle distribution (%) S: control (DMSO) 31.89; for Cell cycle distribution (%) G0-G1: control (DMSO) 57.92; for phase of cell cycle arrest: MCF-7, 24 h
Description: It was carried out using MCF-7 cell lines stained with PI and analysed by FACS Calibur flow cytometer as reported[51]^,[58].
The cells were treated with DMSO as a control.

MCF-7 (breast cancer) = experiment: MTT cytotoxicity assay, MCF-7; type: cell-based; conditions: Homo sapiens, MCF7, mean ± SD, triplicate
Description: as §1

VEGFR-2 [8] = molecular target: T1, VEGFR-2; conditions: cited from earlier work

T1 sequence (P35968 20-1356): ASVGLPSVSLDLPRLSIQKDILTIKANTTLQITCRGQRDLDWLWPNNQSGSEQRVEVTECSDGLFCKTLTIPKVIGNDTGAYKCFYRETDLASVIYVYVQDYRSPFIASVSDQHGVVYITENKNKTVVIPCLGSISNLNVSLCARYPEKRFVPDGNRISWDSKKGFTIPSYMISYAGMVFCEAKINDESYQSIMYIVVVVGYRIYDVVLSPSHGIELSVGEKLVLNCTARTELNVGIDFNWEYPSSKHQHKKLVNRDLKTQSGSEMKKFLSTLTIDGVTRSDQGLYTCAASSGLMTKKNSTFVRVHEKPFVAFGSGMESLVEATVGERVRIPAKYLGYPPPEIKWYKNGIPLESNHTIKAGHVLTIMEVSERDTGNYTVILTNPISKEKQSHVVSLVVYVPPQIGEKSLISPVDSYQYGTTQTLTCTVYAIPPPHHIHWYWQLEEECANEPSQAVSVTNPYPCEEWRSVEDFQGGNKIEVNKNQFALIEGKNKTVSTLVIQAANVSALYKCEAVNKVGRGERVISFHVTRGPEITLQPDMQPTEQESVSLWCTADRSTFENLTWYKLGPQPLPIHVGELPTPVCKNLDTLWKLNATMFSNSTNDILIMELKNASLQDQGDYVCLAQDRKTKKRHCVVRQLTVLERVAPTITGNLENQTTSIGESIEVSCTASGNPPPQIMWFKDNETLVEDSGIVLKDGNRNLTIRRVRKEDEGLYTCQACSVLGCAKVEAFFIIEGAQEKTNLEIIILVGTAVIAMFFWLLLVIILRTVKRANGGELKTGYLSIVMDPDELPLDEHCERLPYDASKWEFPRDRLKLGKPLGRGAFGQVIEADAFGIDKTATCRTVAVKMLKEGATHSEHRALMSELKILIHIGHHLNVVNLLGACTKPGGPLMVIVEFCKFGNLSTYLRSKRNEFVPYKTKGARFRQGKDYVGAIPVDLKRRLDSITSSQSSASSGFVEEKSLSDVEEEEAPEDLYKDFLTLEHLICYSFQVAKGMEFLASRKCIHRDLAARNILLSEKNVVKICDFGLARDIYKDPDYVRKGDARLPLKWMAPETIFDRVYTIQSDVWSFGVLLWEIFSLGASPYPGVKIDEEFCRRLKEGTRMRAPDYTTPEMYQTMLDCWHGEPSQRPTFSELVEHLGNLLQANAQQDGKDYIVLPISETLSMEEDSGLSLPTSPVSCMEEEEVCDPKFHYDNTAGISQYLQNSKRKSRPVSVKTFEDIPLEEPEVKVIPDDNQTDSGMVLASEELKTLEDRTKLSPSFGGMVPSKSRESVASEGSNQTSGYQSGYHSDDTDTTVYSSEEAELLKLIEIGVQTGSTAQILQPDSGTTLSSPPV

Structure (SMILES) | IC50 [1] | IC50 [2] | IC50 ([3]; Homo sapiens) | ratio of total apoptotic cells (early and late apoptotic cells) (MCF-7 cells [4]) | inhibition at 1 µM (VEGFR-2 [5]) | inhibition at 10 µM (VEGFR-2 [5]) | % Inhibition 10 nm (VEGFR-2 [5]) | % Inhibition 100 nm (VEGFR-2 [5]) | IC50 (VEGFR-2 [5]) | IC50 [6] | Cell cycle distribution (%) G2-M (MCF-7 cells [7]) | Cell cycle distribution (%) S (MCF-7 cells [7]) | Cell cycle distribution (%) G0-G1 (MCF-7 cells [7]) | IC50 (MCF-7 (breast cancer)) | melting point | IC50 [3] | phase of cell cycle arrest (MCF-7 cells [7]) | IC50 (VEGFR-2 [8])
O=C(CN1C(=O)SC(=Cc2ccc(F)cc2)C1=O)Nc1nc2ccc([N+](=O)[O-])cc2s1 [4a, 2-(5-(4-Fluorobenzylidene)-2,4-dioxothiazolidin-3-yl)-N-(6-nitrobenzo[d]thiazol-2-yl)acetamide] | 45.2 ± 2.6 µM | 7.92 ± 0.6 µM | 3.84 to 9.04 µM | 49.71% | 77.9% | 92% | 31.27% | 45.14% | 91 nM | 5.61 ± 0.3 µM | 3.28% | 49.85% | 46.87% | 3.84 ± 0.1 µM |  |  |  | 
COc1ccc(C=C2SC(=O)N(CC(=O)Nc3nc4ccc([N+](=O)[O-])cc4s3)C2=O)cc1 [4b, 2-(5-(4-Methoxybenzylidene)-2,4-dioxothiazolidin-3-yl)-N-(6-nitrobenzo[d]thiazol-2-yl)acetamide] | 77.6 ± 4.3 µM | 34.7 ± 2.4 µM | 22.3 to 34.7 µM |  |  |  |  |  |  | 29.9 ± 2.2 µM |  |  |  | 22.3 ± 1.7 µM |  |  |  | 
O=C(CN1C(=O)SC(=Cc2ccc(Br)cc2)C1=O)Nc1nc2ccc([N+](=O)[O-])cc2s1 [4c, 2-(5-(4-Bromobenzylidene)-2,4-dioxothiazolidin-3-yl)-N-(6-nitrobenzo[d]thiazol-2-yl)acetamide] | 28.9 ± 2.2 µM | 65.5 ± 3.6 µM | 47.9 to 65.5 µM |  |  |  |  |  |  | 47.9 ± 2.9 µM |  |  |  | 50.1 ± 2.9 µM |  |  |  | 
Cc1ccc(C=C2SC(=O)N(CC(=O)Nc3nc4ccc([N+](=O)[O-])cc4s3)C2=O)cc1 [4d, 2-(5-(4-Methylbenzylidene)-2,4-dioxothiazolidin-3-yl)-N-(6-nitrobenzo[d]thiazol-2-yl)acetamide] | 74 ± 4.1 µM | 21.1 ± 1.8 µM | 15.5 to 26.8 µM |  |  |  |  |  |  | 26.8 ± 2.1 µM |  |  |  | 15.5 ± 1.2 µM | 201 to 203 °C |  |  | 
COc1cc(C=C2SC(=O)N(CC(=O)Nc3nc4ccc([N+](=O)[O-])cc4s3)C2=O)cc(OC)c1OC [4e, 2-(2,4-Dioxo-5–(3,4,5-trimethoxybenzylidene)thiazolidin-3-yl)-N-(6-nitrobenzo[d]thiazol-2-yl)acetamide] | 32.8 ± 2.3 µM | 9.04 ± 0.8 µM | 3.84 to 9.04 µM | 42.17% | 70.5% | 88.7% | 24.09% | 42.84% | 161 nM | 8.24 ± 0.6 µM | 4.99% | 42.66% | 52.35% | 6.11 ± 0.4 µM |  | 6.11 to 9.04 µM | S phase | 
Cc1ccc(-c2nc(SCC(=O)Nc3nc4ccc([N+](=O)[O-])cc4s3)[nH]c(=O)c2C#N)cc1 [8a] | 53.1 ± 3.1 µM | 18.1 ± 1.4 µM | 10.9 to 18.1 µM | 30.75% | 70.1% | 83.5% | 16.31% | 37.14% | 266 nM | 13.9 ± 1 µM | 2.53% | 36.11% | 61.36% | 10.9 ± 0.8 µM |  |  | G1/S phase | 
CNC(=O)c1cc(Oc2ccc(NC(=O)Nc3ccc(Cl)c(C(F)(F)F)c3)cc2)ccn1 [SOR, Sorafenib, reference compound] | 6.72 ± 0.5 µM | 4.5 ± 0.2 µM |  |  |  |  |  |  |  | 5.23 ± 0.3 µM |  |  |  | 4.17 ± 0.2 µM |  |  |  | 
O=C(CN1C(=O)S/C(=C\c2ccc(F)cc2)C1=O)Nc1nc2ccccc2s1 [X] |  |  |  |  |  |  |  |  |  |  |  |  |  |  |  |  |  | 190 nM
